In patent US9067896B2, “Crystalline forms of 3-(2,6-dichloro-3,5-dimethoxy-phenyl)-1-{6-[4-(4-ethyl-piperazin-1-yl) -phenylamino]-pyrimidin-4-yl}-1-methyl-urea and salts thereof” (Novartis AG, priority 2009, dated 2015):
Structures can show the parent of a compound that is named as a salt. Where two headings read alike, the source gives them in different places.

Columns and labels:
[1] = Hygroscopicity from DVS sorption/desorption isotherms; assay type: physicochemical
Protocol: Hygroscopicity was measured from sorption/desorption isotherms using Surface Measurement System DVS-1 at 25±0.5° C. Samples were evaluated at various humidities including 75%, 85%, and 95%.
The free base (anhydrous and monohydrate) and its phosphate salt (form A) were subjected to sorption and desorption cycle using a VTI brand instrument. The solids were collected after the experiment and analyzed. […] The DVS plots are shown in FIGS. 4A (free base, anhydrous), 4B (phosphate salt (form A) and 4C (free base, monohydrate). The maximum water uptake for the phosphate salt (form A) was less than 2% (i.e. 0.7%) at 25° C. up to 95% relative humidity (rh) (see Table 9). The maximum water uptake for the monohydrate was less than 1.4% at 25° C. up to 95% RH. The monohydrate with an approximate water content of 3% could not be completely dried during the experiment but the water that could be removed was reversibly reabsorbed. The plateau of existence of the monohydrate form is found to be within 10% and 95% RH with a slight hysteresis at the second desorption cycle.

[2] = Pharmacokinetics / bioavailability in rats; assay type: in vivo; conditions: for concentration at 24 h / concentration at 8 h: read-out: Clast [μmol/L ± SE]; for half-life: read-out: t1/2 terminal elimination (converted); for Cmax: read-out: Cmax [μmol/L ± SE]
Protocol: The higher water solubility of the phosphate salt compared to the free base (and other acid salts, as described above) led to the development of a solution formulation (or composition), which would not be feasible with the free base due to solubility restrictions. For this experiment, the phosphate salt was prepared as follows. In a glass vial, 10.7 mg of the free base was dissolved in 4 ml THF. Phosphoric acid (1.76 ml) in acetone (0.01M) was added. The mixture was warmed to 50° C. for about 2 minutes. The vial was left open for partial evaporation at room temperature. Overnight, a suspension was formed, which was filtered yielding about 5.5 mg of an off-white powder. The bioavailabilities, in rats, of the active agents (the free base and its phosphate salt), formulated variously, are tabulated below (Table 10).

[3] = rat, in vivo, iv, 5 mg/kg, rats, i.v. [5 mg/kg]
[4] = rat, in vivo, po, 8.57 mg/kg, rats, free base p.o., suspension (water containing 0.5% HPMC) [8.57 mg/kg]
[5] = rat, in vivo, po, 10 mg/kg, rats, colloidal solution (water, ethanol and cremophor EL) [10 mg/kg]
[6] = rat, in vivo, po, 10 mg/kg, rats, p.o., colloidal solution (water, ethanol and cremophor EL) [10 mg/kg]
[7] = rats, free base p.o., suspension (water containing 0.5% HPMC) [8.57 mg/kg]
[8] = rats, p.o., colloidal solution (water, ethanol and cremophor EL) [10 mg/kg]
[9] = Relative humidity 5%, after the 95% step
[10] = Relative humidity 5%, before the 95% step
[11] = Relative humidity 25%, after the 95% step
[12] = Relative humidity 25%, before the 95% step
[13] = Relative humidity 50%, after the 95% step
[14] = Relative humidity 50%, before the 95% step
[15] = Relative humidity 75%, after the 95% step
[16] = Relative humidity 75%, before the 95% step
[17] = Relative humidity 85%, after the 95% step
[18] = Relative humidity 85%, before the 95% step
[19] = rat, in vivo, po, 8.57 mg/kg, rats, phosphate salt p.o., supension (water containing 0.5% HPMC) [8.57 mg/kg]
[20] = rat, in vivo, po, 10 mg/kg, pH 4.7, rats, p.o., solution (PEG300/acetate buffer pH 4.7 1:1) [10 mg/kg]
[21] = rats, p.o., solution (PEG300/acetate buffer pH 4.7 1:1) [10 mg/kg]
[22] = rats, phosphate salt p.o., supension (water containing 0.5% HPMC) [8.57 mg/kg]

CCN1CCN(c2ccc(Nc3cc(N(C)C(=O)Nc4c(Cl)c(OC)cc(OC)c4Cl)ncn3)cc2)CC1 [Free Base, 3-(2,6-Dichloro-3,5-dimethoxy-phenyl)-1-{6-[4-(4-ethyl-piperazin-1-yl)-phenylamino]-pyrimidin-4-yl}-1-methyl-urea]
hygroscopicity (in words) ([1]; listed as anhydrous free base): slightly hygroscopic | AUC(0-inf) [2, 3]: 2.47 µM·h | concentration at 5 min ([2]; rat, in vivo, iv, 5 mg/kg, rats, i.v. [5 mg/kg], read-out: C5 min [μmol/L ± SE]): 0.972 ± 0.404 µmol/L | concentration at 24 h [2, 3]: 0.003 ± 0.003 µmol/L | half-life [2, 3]: 4.5 h | clearance ([2]; rat, in vivo, iv, rats, i.v. [5 mg/kg]): 60 mL/min/kg | Vd ([2]; rat, in vivo, iv, rats, i.v. [5 mg/kg], read-out: Vss): 9.6 L/kg | AUC(0-inf) [2, 4]: 1.55 µM·h | Tmax [2, 4]: 2 h | concentration at 8 h [2, 4]: 0.077 ± 0.038 µmol/L | Cmax [2, 4]: 0.202 ± 0.021 µmol/L | half-life [2, 4]: 4.3 h | AUC(0-inf) [2, 5]: 1.44 µM·h | Tmax [2, 5]: 3 h | concentration at 24 h [2, 6]: 0.01 ± 0.005 µmol/L | Cmax [2, 6]: 0.154 ± 0.026 µmol/L | half-life [2, 6]: 5.2 h | AUC (0-∞) dose ^A [(h · μmol/L)/(mg/kg)] [2, 7]: 0.18 (h · μmol/L)/(mg/kg) | BAV f [%] [2, 7]: 37 ± 11% | tlast [2, 7]: 8 h | AUC (0-∞) dose ^A [(h · μmol/L)/(mg/kg)] ([2]; rats, i.v. [5 mg/kg]): 0.49 (h · μmol/L)/(mg/kg) | tlast ([2]; rats, i.v. [5 mg/kg]): 24 h | AUC (0-∞) dose ^A [(h · μmol/L)/(mg/kg)] [2, 8]: 0.14 (h · μmol/L)/(mg/kg) | BAV f [%] [2, 8]: 29% | tlast [2, 8]: 24 h

CCN1CCN(c2ccc(Nc3cc(N(C)C(=O)Nc4c(Cl)c(OC)cc(OC)c4Cl)ncn3)cc2)CC1 [Phosphate salt (form A)]
weight gain due to water absorption (DVS) ([1]; 75% RH, listed as phosphate salt): < 1% | weight gain due to water absorption (DVS) ([1]; 85% RH): < 1% | weight gain due to water absorption (DVS) ([1]; 95% RH, listed as phosphate salt): < 2% | Adsorption Weight Gain (%) ([1]; Relative humidity 0%): 0.000% | Desorption Weight Gain (%) ([1]; Relative humidity 0%): 0.000% | Adsorption Weight Gain (%) [1, 9]: 0.000% | Desorption Weight Gain (%) [1, 9]: 0.048% | Adsorption Weight Gain (%) [1, 10]: 0.016% | Desorption Weight Gain (%) [1, 10]: 0.091% | Adsorption Weight Gain (%) [1, 11]: 0.177% | Desorption Weight Gain (%) [1, 11]: 0.447% | Adsorption Weight Gain (%) [1, 12]: 0.165% | Desorption Weight Gain (%) [1, 12]: 0.507% | Adsorption Weight Gain (%) [1, 13]: 0.334% | Desorption Weight Gain (%) [1, 13]: 0.705% | Adsorption Weight Gain (%) [1, 14]: 0.309% | Desorption Weight Gain (%) [1, 14]: 0.738% | Adsorption Weight Gain (%) [1, 15]: 0.467% | Desorption Weight Gain (%) [1, 15]: 1.275% | Adsorption Weight Gain (%) [1, 16]: 0.437% | Desorption Weight Gain (%) [1, 16]: 1.022% | Adsorption Weight Gain (%) [1, 17]: 0.520% | Desorption Weight Gain (%) [1, 17]: 1.421% | Adsorption Weight Gain (%) [1, 18]: 0.495% | Desorption Weight Gain (%) [1, 18]: 1.245% | Adsorption Weight Gain (%) ([1]; Relative humidity 95%): 0.653% | Desorption Weight Gain (%) ([1]; Relative humidity 95%): 1.547% | hygroscopicity (in words) ([1]; listed as phosphate salt): slightly hygroscopic | bioavailability relative to the free base ([2]; oral administration): ~2 fold | AUC(0-inf) [2, 19]: 1.23 µM·h | Tmax [2, 19]: 3 h | concentration at 8 h [2, 19]: 0.062 ± 0.006 µmol/L | Cmax [2, 19]: 0.15 ± 0.031 µmol/L | half-life [2, 19]: 4.4 h | AUC(0-inf) [2, 20]: 2.52 µM·h | Tmax [2, 20]: 4 h | concentration at 8 h [2, 20]: 0.148 ± 0.018 µmol/L | Cmax [2, 20]: 0.263 ± 0.083 µmol/L | AUC (0-∞) dose ^A [(h · μmol/L)/(mg/kg)] [2, 21]: 0.25 (h · μmol/L)/(mg/kg) | BAV f [%] [2, 21]: 51% | t1/2 terminal elimination [2, 21]: 4.8 h | tlast [2, 21]: 8 h | AUC (0-∞) dose ^A [(h · μmol/L)/(mg/kg)] [2, 22]: 0.14 (h · μmol/L)/(mg/kg) | BAV f [%] [2, 22]: 29 ± 3% | tlast [2, 22]: 8 h
